{
  "source": "patent EP0897904B1",
  "about": "“Fungicidal 2-methoxybenzophenones” (BASF AKTIENGESELLSCHAFT, priority 1997, dated 1999)",
  "format_in_all_cases": "in vivo",
  "key": {"[1]": {"system": "Blumeria (Erysiphe) graminis DC. f.sp. tritici E. Marchal", "experiment": "Curative and residual control test, Wheat Powdery Mildew (WPM)", "details": "read-out: Disease control (% efficacy)", "description": "(§1) • (a) Wheat Powdery Mildew (WPM): HOST: Wheat (Triticum aestivum L.) variety Kanzler PATHOGEN: Blumeria (Erysiphe) graminis DC. f.sp. tritici E. Marchal • (b) Cucumber Powdery Mildew (QPM): HOST: Cucumber (Cucumis sativus L.) variety Bush pickle PATHOGEN: Erysiphe cichoracearum DC\n(§2) This test procedure is for curative and residual control of powdery mildew diseases. • 1. Wheat seed (approximately 8-10/pot) or cucumber seed (1 seed / pot) is planted in 6 cm diameter plastic pots and maintained in the greenhouse. • 2. When the primary leaf (wheat) or the cotyledons (cucumber) is/are fully expanded, formulated test compounds are sprayed with a single nozzle overhead track sprayer at a rate of 200 l/ha. Plants are then allowed to air-dry. • 3. Inoculation precedes treatment by 2 or 3 days in the case of curative evaluations and follows treatment by 3 or 4 days in case of residual evaluations. For inoculation, plants are set up on greenhouse benches with bottom watering mats and inoculated by dusting them with conidia from powdery mildew infected plants (stock cultures at an age of 10-14 days). Between inoculation and treatment for curative evaluations and between treatment and inoculation for residual evaluations, plants are maintained in the greenhouse with bottom watering. • 4. Disease on the primary leaf (wheat) or on the cotyledons (cucumber) as percent leaf area with disease symptoms/signs is evaluated about 7 days after inoculation. In the case of wheat, the tips and bases of the leaves are excluded from the evaluation. Percent disease control is then calculated by the following formula: % disease control = 100 -(% infection in treated plants)/(% infection in untreated plants)x 100 [formula]\n(§3) • 1. Technical compounds are formulated in a solvent/surfactant system consisting of 5% acetone and 0.05% Tween 20 in deionized water. Compounds are dissolved in acetone prior to addition of the water; the Tween 20 can be added through either the acetone or the water. Dilutions are made using the solvent/surfactant system. Formulated compounds are prepared using deionized water. • 2. Two kinds of controls are included: • Plants treated with the solvent/surfactant solution and inoculated (Solvent Blank). • Untreated plants which are inoculated (Inoculated Control)."}, "[2]": {"system": "Blumeria (Erysiphe) graminis DC. f.sp. tritici E. Marchal", "experiment": "Foliar systemicity test, wheat powdery mildew (band application on leaf)", "details": "typically 400 ppm", "description": "Wheat Powdery Mildew (WPM): HOST: Wheat (Triticum aestivum L.) variety Kanzler PATHOGEN: Blumeria (Erysiphe) graminis DC. f.sp. tritici E. Marchal\n• 1. Wheat seed (8/pot) is planted in 8 cm diameter plastic pots in the greenhouse. • 2. When the primary leaf is fully expanded, the plants are cut back to four in each pot of which two are marked with a permanent marker 5 cm below the leaf tip on the upper leaf surface. Thus there are two band-treated and two untreated plants in each pot. • 3. A pipette is used to apply 5 µl of the formulated compound in a band on the lower leaf surface opposite the mark. The application band should cover the whole leaf width. After application, the plants are not moved until the bands are dry (half an hour or so later). • 4. After treated plants have dried, they are moved to the greenhouse and kept there for 2 days to allow for movement of the compounds. The plants are maintained with bottom watering. • 5. Two days after application, the plants are inoculated by dusting them with powdery mildew conidia in the greenhouse. Evaluations are typically made 7 - 8 days after inoculation.\nThree types of compound movement are assessed by evaluating disease in three areas of each band-treated leaf. Translaminar movement: The percent disease area is assessed for the translaminar band area (marked area of the upper leaf surface directly opposite where band was applied on the lower leaf surface; width of band approximately 5 mm). Translaminar disease control is then calculated using the following formula: % disease control = 100 -(% disease in treated plants)/(% disease in untreated plants)x 100 [formula]\nDistal movement and proximal movement: The distal and proximal disease-free zones on the upper leaf surface are measured in mm. The distal direction is from the band toward the leaf apex and the proximal direction is from the band toward the leaf base. The percent of the disease-free zone relative to the entire distance between the band and leaf apex or base is calculated. If disease is noticeably lighter in the distal or proximal area this is also noted.\n• 1. […]"}, "[3]": {"system": "Erysiphe cichoracearum DC", "experiment": "Curative and residual control test, Cucumber Powdery Mildew (QPM)", "details": "Golovinomyces cichoracearum, 72 h, read-out: Disease control (% efficacy); for Emax at 12.5 ppm: QPM 3 da R (3 day residual), 12,5 ppm; for Emax at 125 ppm / Emax at 1250 ppm: QPM 3 da R (3 day residual)", "description": "as §1, §2, §3"}},
  "note": "Read-outs that look alike come from different tables or passages of the source.",
  "data": [
    {"compound": "COc1cc(C)c(C(=O)c2c(C)cccc2OC)c(OC)c1OC", "note": "[Example 1, 6,6'-dimethyl-2,2',3',4'-tetramethoxy-benzophenone]", "values": [
      {"measurement": "percent disease control at 12.5 ppm", "setting": "[1]; 48 h, WPM 2 da C (2 day curative), 12,5 ppm, Test A", "result": 69, "unit": "%"},
      {"measurement": "Emax at 12.5 ppm", "setting": "[1]; 48 h, WPM 2 da C (2 day curative), 12,5 ppm, Test B", "result": 52, "unit": "%"},
      {"measurement": "percent disease control at 125 ppm", "setting": "[1]; 48 h, WPM 2 da C (2 day curative), 125 ppm, Test A", "result": 79, "unit": "%"},
      {"measurement": "Emax at 125 ppm", "setting": "[1]; 48 h, WPM 2 da C (2 day curative), 125 ppm, Test B", "result": 65, "unit": "%"},
      {"measurement": "percent disease control at 1250 ppm", "setting": "[1]; 48 h, WPM 2 da C (2 day curative), 1250 ppm, Test A", "result": 88, "unit": "%"},
      {"measurement": "Emax at 1250 ppm", "setting": "[1]; 48 h, WPM 2 da C (2 day curative), 1250 ppm, Test B", "result": 85, "unit": "%"},
      {"measurement": "percent disease control at 12.5 ppm", "setting": "[1]; 72 h, WPM 3 da R (3 day residual), 12,5 ppm, Test A", "result": 90, "unit": "%"},
      {"measurement": "Emax at 12.5 ppm", "setting": "[1]; 72 h, WPM 3 da R (3 day residual), 12,5 ppm, Test B", "result": 100, "unit": "%"},
      {"measurement": "percent disease control at 125 ppm", "setting": "[1]; 72 h, WPM 3 da R (3 day residual), 125 ppm, Test A", "result": 100, "unit": "%"},
      {"measurement": "percent disease control at 125 ppm", "setting": "[1]; 72 h, WPM 3 da R (3 day residual), 125 ppm, Test B", "result": 100, "unit": "%"},
      {"measurement": "percent disease control at 1250 ppm", "setting": "[1]; 72 h, WPM 3 da R (3 day residual), 1250 ppm, Test A", "result": 100, "unit": "%"},
      {"measurement": "percent disease control at 1250 ppm", "setting": "[1]; 72 h, WPM 3 da R (3 day residual), 1250 ppm, Test B", "result": 100, "unit": "%"},
      {"measurement": "Translaminar Activity ( % )", "setting": "[2]; % disease control in translaminar band area, wheat variety Kanzler", "result": 100, "unit": "%"},
      {"measurement": "Distal Movement (mm from band)", "setting": "[2]; disease-free zone on wheat leaf (variety Kanzler) from band toward leaf apex, 5 µl band, inoculated 2 days after application", "result": 50, "unit": "mm"},
      {"measurement": "Proximal Movement (mm from band)", "setting": "[2]; disease-free zone on wheat leaf (variety Kanzler) from band toward leaf base, 5 µl band, inoculated 2 days after application", "result": 10, "unit": "mm"},
      {"measurement": "Emax at 12.5 ppm", "setting": "[3]; Test A", "result": 2, "unit": "%"},
      {"measurement": "Emax at 12.5 ppm", "setting": "[3]; Test B", "result": 3, "unit": "%"},
      {"measurement": "Emax at 125 ppm", "setting": "[3]; Test A", "result": 5, "unit": "%"},
      {"measurement": "Emax at 125 ppm", "setting": "[3]; Test B", "result": 61, "unit": "%"},
      {"measurement": "Emax at 1250 ppm", "setting": "[3]; Test A", "result": 100, "unit": "%"},
      {"measurement": "Emax at 1250 ppm", "setting": "[3]; Test B", "result": 100, "unit": "%"}
    ]}
  ]
}
